Results taken from US10710988B2, “Piperazine derivative” (Astellas Pharma Inc., priority 2016, dated 2020).

Experiments:
human MC4 receptor = molecular target: T1, human MC4 receptor (Homo sapiens, UniProt P32245); assay: Human MC4 receptor activation, cAMP production in cells transiently expressing the receptor; type: cell-based; details: FreeStyle 293-F cells expressing human MC4 receptor, α-MSH maximum = 100%
T1 construct: expressed in transfected cells; host or cells: FreeStyle 293-F cells (transient, electroporation)
T1 sequence (P32245 whole entry): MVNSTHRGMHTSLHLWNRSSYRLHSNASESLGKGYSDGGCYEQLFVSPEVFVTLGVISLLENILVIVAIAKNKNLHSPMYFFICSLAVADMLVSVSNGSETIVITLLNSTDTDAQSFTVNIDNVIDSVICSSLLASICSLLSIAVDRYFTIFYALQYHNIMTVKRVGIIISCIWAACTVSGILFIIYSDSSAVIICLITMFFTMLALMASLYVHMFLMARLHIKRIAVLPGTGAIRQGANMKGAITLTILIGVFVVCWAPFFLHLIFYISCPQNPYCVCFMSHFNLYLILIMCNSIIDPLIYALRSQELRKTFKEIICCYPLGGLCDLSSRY
Source text: (§1) (1) Construction of Human MC Receptor-Expressing Vector
(§2) A human MC4 receptor gene (GenBank Accession No.: NM_005912.2), a human MC1 receptor gene (GenBank Accession No.: NM_002386.3), or a human MC3 receptor gene (GenBank Accession No.: NM_019888.3) was introduced into an expression vector pcDNA™ 3.1N/V5-His TOPO (registered trademark) (Thermo Fisher Scientific Inc).
(§3) (2) Construction of Cells Transiently Expressing Human MC Receptor
(§4) An expression vector for a human MC4, MC1, or MC3 receptor was introduced into FreeStyle™ 293-F cells (Thermo Fisher Scientific Inc., product number: R790-07). For the introduction, electroporation was employed. That is, 1×10^7 FreeStyle™ 293-F cells were suspended in 80 μL of an Electroporation Buffer (Thermo Fisher Scientific Inc., product number: B201-100), and 20 μg of the expression vector was added thereto. The resultant was put into a cuvette (OC-100 Processing Assembly, MaxCyte, Inc.) and electroporated with MaxCyte STX (registered trademark) (MaxCyte, Inc.). The cells were cultured for a day, suspended in a Cell Banker (registered trademark) 1 (TAKARA BIO INC. or JUJI FIELD Inc., product number: BLC-1), and stored frozen until they were used.
(§5) (3) Measurement of Amount of cAMP Production
(§6) Measurement was carried out by using a LANCE (registered trademark) Ultra cAMP Kit (PerkinElmer, Inc.) in accordance with the attached instructions. That is, after dissolution in DMSO, the test compound (a final concentration of 1 pM to 30 μM) diluted with an assay buffer (Hank's balanced salt solution, 5 mM 4-(2-hydroxyethyl)-1-piperazineethanesulfonic acid (HEPES), 0.5 mM 3-isobutyl-1-methylxanthine (IBMX), 0.1% bovine serum albumin, pH 7.4), or α-MSH (Bachem Inc., a final concentration of 1 pM to 30 μM) was added to OptiPlate-384 (PerkinElmer, Inc.). Furthermore, the suspension of the cells transiently expressing the human MC4, MC1, or MC3 receptor prepared using the assay buffer was added thereto at 1,000 cells/well, and then left to stand at room temperature for about 1 hour. Thereafter, an Eu-cAMP tracer solution and an ULight™-anti-cAMP solution were added thereto, and then the resulting solution was left to stand at room temperature for about 1 hour. The amount of cAMP was calculated using EnVision (registered trademark) (PerkinElmer Inc.).
(§7) For the agonistic activity, the efficacy (EC50 (μM)) was calculated by a non-linear regression method with a Sigmoid-Emax model, by defining the maximum reaction using α-MSH as 100% and the reaction using the vehicle alone as 0%, respectively.

human MC3 receptor = molecular target: T2, human MC3 receptor (Homo sapiens, UniProt P41968); assay: Human MC3 receptor activation, cAMP production in cells transiently expressing the receptor; type: cell-based; details: FreeStyle 293-F cells expressing human MC3 receptor, α-MSH maximum = 100%
T2 construct: expressed in transfected cells; host or cells: FreeStyle 293-F cells (transient, electroporation)
T2 sequence (P41968 whole entry): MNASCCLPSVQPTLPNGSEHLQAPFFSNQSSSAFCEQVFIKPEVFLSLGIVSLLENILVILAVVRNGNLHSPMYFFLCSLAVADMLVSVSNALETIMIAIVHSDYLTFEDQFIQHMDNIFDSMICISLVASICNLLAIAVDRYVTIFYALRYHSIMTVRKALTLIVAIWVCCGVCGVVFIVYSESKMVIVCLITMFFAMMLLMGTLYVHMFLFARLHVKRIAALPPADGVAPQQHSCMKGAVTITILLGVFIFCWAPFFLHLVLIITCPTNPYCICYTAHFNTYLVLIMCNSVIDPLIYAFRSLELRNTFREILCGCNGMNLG
Source text: as §1, §2, §3, §4, §5, §6, §7

[1] = system: drug-induced voiding dysfunction model rat; assay: Effect on drug-induced voiding dysfunction model rat; type: in vivo; details: male SD rats; atropine sulfate + midodrine hydrochloride induced voiding dysfunction; inhibition of decrease in voiding efficiency or increase of residual urine; P<0.05
Source text: Male Sprague Dawley (SD) rats (Japan SLC, Inc.) were anesthetized with isoflurane and a cannula was placed in the bladder, the stomach, and the jugular vein. Then, the rats were awakened in a Baellman cage (Natsume Seisakusho Co., Ltd.). After a post-operative stabilization period, physiological saline was continuously infused into the bladder by an infusion pump (Terumo Corporation, product number: TE-331 S, STC-528) to induce voiding. Infusion of the physiological saline was stopped as soon as the voiding began, and the amount of the voided urine was measured using an electronic top-loading balance installed under the Ballman cage. After voiding ended, the residual urine was collected by gravity through the cannula implanted into the bladder and weighed, and the weight was taken as the amount of the residual urine. Furthermore, the intravesical pressure was measured by a pressure transducer (Nihon Kohden Corporation, product numbers: DX-100) through the bladder cannula. The test compound or the vehicle was administered into the stomach, and atropine sulfate (Sigma-Aldrich Co. LLC., 0.01 mg/kg) as an anticholinergic drug and midodrine hydrochloride (Sigma-Aldrich Co. LLC., 0.3 mg/kg) as an a adrenergic receptor agonist were intravenously administered to induce voiding dysfunction. The voiding efficiency (=[voided amount/(voided amount+amount of residual urine)]×100) and the amount of the residual urine before and after the administration of the test compound or the vehicle were measured, and the amount changed was evaluated. The value obtained by the administration of the vehicle and the value obtained by the administration of the test compound were compared in a Dunnett's multiple comparison test with a statistically significant difference (P<0.05), and the minimum dose at which the inhibitory action on a decrease in voiding efficiency or on an increase of the amount of residual urine observed was defined as a minimum effective dose (4 rats per group).

| SMILES | EC50 (human MC4 receptor) | EC50 (human MC3 receptor) | MED (minimum effective dose) [1] |
| --- | --- | --- | --- |
| CC(=O)N[C@@H](CC(C)(C)C)C(=O)N1C[C@H](C)N(C(=O)[C@@H]2CN(C(C)(C)C)C[C@H]2c2ccc(F)cc2F)C[C@H]1C.Cl [Example 4, N-{(2S)-1-[(2R,5S)-4-{[(3 S,4R)-1-tert-butyl-4-(2,4-difluorophenyl)pyrrolidin-3-yl]carbonyl}-2,5-dimethylpiperazin-1-yl]-4,4-dimethyl-1-oxopentan-2-yl}acetamide monohydrochloride] | 6.8 nM | 270 nM | 0.01 mg/kg ig |
| CC(=O)N[C@@H](CC(C)C)C(=O)N1CCN(C(=O)[C@@H]2CN(C(C)(C)C)C[C@H]2c2ccc(Cl)cc2F)C[C@H]1C [Example 5] | 6 nM | 550 nM | 0.01 mg/kg ig |
| CC(=O)N[C@H](C(=O)N1CCN(C(=O)[C@@H]2CN(C(C)(C)C)C[C@H]2c2ccc(F)cc2F)[C@@H](C)C1)C1CCCCC1.Cl [Example 6, N-{(1S)-2-[(3S)-4-{[(3S,4R)-1-tert-butyl-4-(2,4-difluorophenyl)pyrrolidin-3-yl]carbonyl}-3-methylpiperazin-1-yl]-1-cyclohexyl-2-oxoethyl}acetamide monohydrochloride] | 19 nM | 1800 nM | 0.03 mg/kg ig |
| CC(=O)N[C@@H](CC(C)(C)C)C(=O)N1CCN(C(=O)[C@@H]2CN(C(C)(C)C)C[C@H]2c2ccc(F)cc2F)[C@@H](C)C1.Cl [Example 8] | 10 nM | 1000 nM | 0.01 mg/kg ig |
| CC(=O)N[C@@H](CC(C)(C)C)C(=O)N1C[C@H](C)N(C(=O)C2CN(C(C)(C)C)CC2c2ccc(F)cc2)C[C@H]1C.Cl (stereo partly drawn) [Example 11] | 11 nM | 890 nM | 0.03 mg/kg ig |
